In patent publication US10914722B2, “Sensor array and apparatus for simultaneous observation of tissue electrophysiology, contractility, and growth” (Lawrence Livermore National Security, LLC, priority 2017, dated 2021):

Tested on: human induced pluripotent stem cell-derived cardiomyocytes (iPS-CMs)
Assay: simultaneous field potential (MEA), impedance (IDE) and optical recording of cardiac tissue pre-/post-drug exposure and after wash-out
Format: cell-based
Text: Measurements were repeated once more after washing the culture to flush the blebbistatin from the system. FIGS. 7A-7C show the field potential (left) and corresponding impedance changes (right) prior to exposure to blebbistatin (FIG. 7A), after exposure to blebbistatin (FIG. 7B) and following flushing of blebbistatin from the system (FIG. 7C).
Prior to compound addition, the tissue beat spontaneously and rhythmically at a rate of 14 bpm, as shown from both the FP profile and impedance profile of FIG. 7A.
Human iPS-CMs were purchased from Cellular Dynamics International (Madison, Wis.). Cells were stored in liquid nitrogen before use. Prior to cell seeding, device culture chambers were sterilized with 70% ethanol, rinsed with autoclaved water, then incubated overnight with 40 μg/mL fibronectin (Sigma-Aldrich, St Louis, Mo.) at 37° C. Cells were seeded at a density of 120K cells/cm2 and kept in an incubator at 37° C. and 5% CO2. Media was exchanged 4 hrs after seeding, then every 48 hours subsequently.
The MEA was connected via electrical connector(s), preferably OMNETICS™ connectors to an AlphaLab SnR multi-channel recording system (Alpha Omega, Alpharetta, Ga.) to record voltages as a function of time across all 16 electrodes of the MEA. Offline analysis of temporal differences between the 16 electrodes when voltage spikes occur generates an activation map. The activation map illustrates FP spatial propagation in the cardiac tissue monolayer across the surface area of the device.
For measuring cardiac contraction, high-speed impedance time recording was performed using a Keysight E4990A Impedance Analyzer (Keysight Technologies Inc., Santa Rosa, Calif.) and controlled using custom LabVIEW software (National Instruments, Austin, Tex.). For each device, impedance was measured at multiple frequencies between 5 kHz and 200 kHz to determine the frequency range that gives the highest signal-to-noise ratio.
Norepinephrine and blebbistatin were purchased from Sigma-Aldrich (St Louis, Mo., USA). Both drugs were dissolved in 0.1% dimethyl sulfoxide and stored at −20° C. Drugs were diluted to desired concentrations in cell media immediately before use. Prior to drug exposure, pre-drug electrophysiology and contraction data of the cardiac tissues on a device were collected for five minutes. Next, cell media was removed from the chamber on the device, drug was added and device was incubated at 37° C. and 5% CO2 for 15 minutes. Recording was again started with the drug. Afterwards, the drug solution was removed and the culture chamber was rinsed three times with cell media, incubated at 37° C. and 5% CO2 for another 15 minutes before performing drug wash-out measurements.

[1] = after incubation with 10 μM, FIG. 7B

Compound: Cc1ccc2c(c1)C(=O)C1(O)CCN(c3ccccc3)C1=N2 (stereo not shown) [blebbistatin]
- action potential pattern (MEA data) [1]: not affected
- impedance recording (contraction signal, IDE) [1]: flat baseline signal
- tissue contraction observed under an optical microscope (after incubation with 10 μM, pre-drug spontaneous beating at 14 bpm, FIG. 7B): static
- tissue contractility after washing out (impedance peaks and optical observation) (wash-out after 10 μM exposure, FIG. 7C): restored the tissue contractility
